*1 amine or outer side, *2 acyl side, *3 side chain or, on linkers, in order; H or OH if unused. Where a SMILES comes first, the peptide text is derived from it. Side-chain parts run from the residue outwards. [ ]: non-standard residue; d: D form. The star is where a group is joined. γGlu = O=C(O)[C@H](CCC(=O)[*:2])N[*:1]; Palmitoyl = CCCCCCCCCCCCCCCC(=O)*; Orn = NCCC[C@H](N)C(=O)O; Aib = CC(C)(N)C(=O)O
Tests used:
Assay type in all cases: cell-based
[1] = biological target: T1, glucagon receptor (Homo sapiens, UniProt P47871); test: cAMP induction, firefly luciferase-based reporter assay in HEK293 cells co-transfected with glucagon receptor; conditions: EC50 at Glucagon Receptor
T1 construct: expressed in transfected cells; host or cells: HEK293
T1 sequence (P47871 26-477): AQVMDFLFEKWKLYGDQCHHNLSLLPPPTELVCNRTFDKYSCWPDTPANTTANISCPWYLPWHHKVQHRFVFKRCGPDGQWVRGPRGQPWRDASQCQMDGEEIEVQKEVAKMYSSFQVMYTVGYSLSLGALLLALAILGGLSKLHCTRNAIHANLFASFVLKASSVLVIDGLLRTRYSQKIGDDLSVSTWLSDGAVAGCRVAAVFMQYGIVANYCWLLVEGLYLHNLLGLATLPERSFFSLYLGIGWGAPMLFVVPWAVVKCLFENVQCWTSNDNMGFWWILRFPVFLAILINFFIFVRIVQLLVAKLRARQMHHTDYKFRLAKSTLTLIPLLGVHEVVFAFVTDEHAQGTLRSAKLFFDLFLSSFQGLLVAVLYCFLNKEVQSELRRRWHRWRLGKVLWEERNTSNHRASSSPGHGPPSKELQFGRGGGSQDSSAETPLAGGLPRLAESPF
Text: (§1) This example describes an exemplary method of testing the biological activity of the peptides of the present disclosures, which method involves assaying cAMP synthesis.

[2] = biological target: T2, GLP-1 receptor (Homo sapiens, UniProt P43220); test: cAMP induction, firefly luciferase-based reporter assay in HEK293 cells co-transfected with GLP-1 receptor; conditions: EC50 at GLP-1 Receptor
T2 construct: expressed in transfected cells; host or cells: HEK293
T2 sequence (P43220 24-463): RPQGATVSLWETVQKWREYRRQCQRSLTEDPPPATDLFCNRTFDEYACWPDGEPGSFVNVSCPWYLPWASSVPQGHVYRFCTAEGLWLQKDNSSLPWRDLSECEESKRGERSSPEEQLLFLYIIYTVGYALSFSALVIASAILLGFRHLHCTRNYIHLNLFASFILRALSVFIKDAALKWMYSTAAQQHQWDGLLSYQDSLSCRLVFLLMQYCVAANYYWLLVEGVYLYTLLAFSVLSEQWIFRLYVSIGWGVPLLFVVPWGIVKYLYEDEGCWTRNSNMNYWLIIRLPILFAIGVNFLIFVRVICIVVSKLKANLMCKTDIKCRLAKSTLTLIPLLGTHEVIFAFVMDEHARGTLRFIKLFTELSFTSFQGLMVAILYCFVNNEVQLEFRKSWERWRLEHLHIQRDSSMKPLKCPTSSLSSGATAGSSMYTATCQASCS
Text: as §1

[3] = biological target: T3, GIP receptor (Homo sapiens, UniProt P48546); test: cAMP induction, firefly luciferase-based reporter assay in HEK293 cells co-transfected with GIP receptor; conditions: EC50 at GIP Receptor
T3 construct: expressed in transfected cells; host or cells: HEK293
T3 sequence (P48546 22-466): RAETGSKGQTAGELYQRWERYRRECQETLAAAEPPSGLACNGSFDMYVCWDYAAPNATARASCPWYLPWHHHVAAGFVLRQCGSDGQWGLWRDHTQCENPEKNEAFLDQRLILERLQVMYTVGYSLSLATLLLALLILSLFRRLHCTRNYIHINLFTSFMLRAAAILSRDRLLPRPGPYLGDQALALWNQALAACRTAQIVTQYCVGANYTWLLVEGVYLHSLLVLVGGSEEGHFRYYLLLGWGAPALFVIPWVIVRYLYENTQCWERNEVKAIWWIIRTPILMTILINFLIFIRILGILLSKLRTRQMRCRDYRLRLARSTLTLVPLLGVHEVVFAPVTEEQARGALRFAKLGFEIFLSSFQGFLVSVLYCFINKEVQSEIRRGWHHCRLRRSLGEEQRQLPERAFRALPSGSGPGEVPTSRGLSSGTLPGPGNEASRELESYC
Text: as §1

[4] = Table 3, analogs of SEQ ID NO: 18 varying at position 3
[5] = Table 2, analogs of SEQ ID NO: 18 varying at positions 16-21

SMILES | EC50 [1, 4] | EC50 [2, 4] | EC50 [3, 4] | EC50 [1, 5] | EC50 [2, 5] | EC50 [3, 5]
CCCCCCCCCCCCCCCC(=O)N[C@@H](CCC(=O)NCCCC[C@H](NC(=O)[C@H](CC(=O)O)NC(=O)[C@H](CO)NC(=O)[C@@H](NC(=O)[C@H](Cc1ccccc1)NC(=O)[C@@H](NC(=O)CNC(=O)[C@H](CCCNC(C)=O)NC(=O)C(C)(C)NC(=O)[C@@H](N)Cc1c[nH]cn1)[C@@H](C)O)[C@@H](C)O)C(=O)N[C@@H](CO)C(=O)N[C@@H](CCCCN)C(=O)N[C@@H](Cc1ccc(O)cc1)C(=O)N[C@@H](CC(C)C)C(=O)N[C@@H](CCC(=O)O)C(=O)N[C@@H](CCC(=O)O)C(=O)N[C@@H](CCCNC(=N)N)C(=O)N[C@@H](C)C(=O)N[C@@H](C)C(=O)N[C@@H](CCC(N)=O)C(=O)N[C@@H](CCC(=O)O)C(=O)N[C@@H](Cc1ccccc1)C(=O)N[C@H](C(=O)N[C@@H](CCC(N)=O)C(=O)N[C@@H](Cc1c[nH]c2ccccc12)C(=O)N[C@@H](CC(C)C)C(=O)N[C@@H](CC(C)C)C(=O)N[C@@H](CCC(=O)O)C(=O)NCC(=O)NCC(=O)N1CCC[C@H]1C(=O)N[C@@H](CO)C(=O)N[C@@H](CO)C(=O)NCC(=O)N[C@@H](C)C(=O)N1CCC[C@H]1C(=O)N1CCC[C@H]1C(=O)N1CCC[C@H]1C(=O)N[C@@H](CO)C(N)=O)C(C)C)C(=O)O [compound 34] (H-H[Aib][Orn](Ac)GTFTSDK([γGlu-Palmitoyl])SKYLEERAAQEFVQWLLEGGPSSGAPPPS-NH2; N-terminus assumed) | 0.368 nM | 0.001 nM | 0.02 nM |  |  | 
CCCCCCCCCCCCCCCC(=O)N[C@@H](CCC(=O)NCCCC[C@H](NC(=O)[C@H](CC(=O)O)NC(=O)[C@H](CO)NC(=O)[C@@H](NC(=O)[C@H](Cc1ccccc1)NC(=O)[C@@H](NC(=O)CNC(=O)[C@H](CCC(=O)O)NC(=O)C(C)(C)NC(=O)[C@@H](N)Cc1c[nH]cn1)[C@@H](C)O)[C@@H](C)O)C(=O)N[C@@H](CO)C(=O)N[C@@H](CCCCN)C(=O)N[C@@H](Cc1ccc(O)cc1)C(=O)N[C@@H](CC(C)C)C(=O)N[C@@H](CCC(=O)O)C(=O)N[C@@H](CCC(=O)O)C(=O)N[C@@H](CCCNC(=N)N)C(=O)N[C@@H](C)C(=O)N[C@@H](C)C(=O)N[C@@H](CCC(N)=O)C(=O)N[C@@H](CCC(=O)O)C(=O)N[C@@H](Cc1ccccc1)C(=O)N[C@H](C(=O)N[C@@H](CCC(N)=O)C(=O)N[C@@H](Cc1c[nH]c2ccccc12)C(=O)N[C@@H](CC(C)C)C(=O)N[C@@H](CC(C)C)C(=O)N[C@@H](CCC(=O)O)C(=O)NCC(=O)NCC(=O)N1CCC[C@H]1C(=O)N[C@@H](CO)C(=O)N[C@@H](CO)C(=O)NCC(=O)N[C@@H](C)C(=O)N1CCC[C@H]1C(=O)N1CCC[C@H]1C(=O)N1CCC[C@H]1C(=O)N[C@@H](CO)C(N)=O)C(C)C)C(=O)O [compound 29] (H-H[Aib]EGTFTSDK([γGlu-Palmitoyl])SKYLEERAAQEFVQWLLEGGPSSGAPPPS-NH2; N-terminus assumed) | 1.5 nM | 0.008 nM | 0.017 nM |  |  | 
CCCCCCCCCCCCCCCC(=O)N[C@@H](CCC(=O)NCCCC[C@H](NC(=O)[C@H](CC(=O)O)NC(=O)[C@H](CO)NC(=O)[C@@H](NC(=O)[C@H](Cc1ccccc1)NC(=O)[C@@H](NC(=O)CNC(=O)[C@H](C)NC(=O)C(C)(C)NC(=O)[C@@H](N)Cc1c[nH]cn1)[C@@H](C)O)[C@@H](C)O)C(=O)N[C@@H](CO)C(=O)N[C@@H](CCCCN)C(=O)N[C@@H](Cc1ccc(O)cc1)C(=O)N[C@@H](CC(C)C)C(=O)N[C@@H](CCC(=O)O)C(=O)N[C@@H](CCC(=O)O)C(=O)N[C@@H](CCCNC(=N)N)C(=O)N[C@@H](C)C(=O)N[C@@H](C)C(=O)N[C@@H](CCC(N)=O)C(=O)N[C@@H](CCC(=O)O)C(=O)N[C@@H](Cc1ccccc1)C(=O)N[C@H](C(=O)N[C@@H](CCC(N)=O)C(=O)N[C@@H](Cc1c[nH]c2ccccc12)C(=O)N[C@@H](CC(C)C)C(=O)N[C@@H](CC(C)C)C(=O)N[C@@H](CCC(=O)O)C(=O)NCC(=O)NCC(=O)N1CCC[C@H]1C(=O)N[C@@H](CO)C(=O)N[C@@H](CO)C(=O)NCC(=O)N[C@@H](C)C(=O)N1CCC[C@H]1C(=O)N1CCC[C@H]1C(=O)N1CCC[C@H]1C(=O)N[C@@H](CO)C(N)=O)C(C)C)C(=O)O [compound 35] (H-H[Aib]AGTFTSDK([γGlu-Palmitoyl])SKYLEERAAQEFVQWLLEGGPSSGAPPPS-NH2; N-terminus assumed) | 0.073 nM | 0.002 nM | 0.006 nM |  |  | 
CCCCCCCCCCCCCCCC(=O)N[C@@H](CCC(=O)NCCCC[C@H](NC(=O)[C@H](CC(=O)O)NC(=O)[C@H](CO)NC(=O)[C@@H](NC(=O)[C@H](Cc1ccccc1)NC(=O)[C@@H](NC(=O)CNC(=O)[C@H](CCCCNC(C)=O)NC(=O)C(C)(C)NC(=O)[C@@H](N)Cc1c[nH]cn1)[C@@H](C)O)[C@@H](C)O)C(=O)N[C@@H](CO)C(=O)N[C@@H](CCCCN)C(=O)N[C@@H](Cc1ccc(O)cc1)C(=O)N[C@@H](CC(C)C)C(=O)N[C@@H](CCC(=O)O)C(=O)N[C@@H](CCC(=O)O)C(=O)N[C@@H](CCCNC(=N)N)C(=O)N[C@@H](C)C(=O)N[C@@H](C)C(=O)N[C@@H](CCC(N)=O)C(=O)N[C@@H](CCC(=O)O)C(=O)N[C@@H](Cc1ccccc1)C(=O)N[C@H](C(=O)N[C@@H](CCC(N)=O)C(=O)N[C@@H](Cc1c[nH]c2ccccc12)C(=O)N[C@@H](CC(C)C)C(=O)N[C@@H](CC(C)C)C(=O)N[C@@H](CCC(=O)O)C(=O)NCC(=O)NCC(=O)N1CCC[C@H]1C(=O)N[C@@H](CO)C(=O)N[C@@H](CO)C(=O)NCC(=O)N[C@@H](C)C(=O)N1CCC[C@H]1C(=O)N1CCC[C@H]1C(=O)N1CCC[C@H]1C(=O)N[C@@H](CO)C(N)=O)C(C)C)C(=O)O [compound 39] (H-H[Aib]K(Ac)GTFTSDK([γGlu-Palmitoyl])SKYLEERAAQEFVQWLLEGGPSSGAPPPS-NH2; N-terminus assumed) | 0.543 nM | 0.01 nM | 0.336 nM |  |  | 
CCCCCCCCCCCCCCCC(=O)N[C@@H](CCC(=O)NCCCC[C@H](NC(=O)[C@H](CC(=O)O)NC(=O)[C@H](CO)NC(=O)[C@@H](NC(=O)[C@H](Cc1ccccc1)NC(=O)[C@@H](NC(=O)CNC(=O)[C@H](CCC(N)=O)NC(=O)C(C)(C)NC(=O)[C@@H](N)Cc1c[nH]cn1)[C@@H](C)O)[C@@H](C)O)C(=O)N[C@@H](CO)C(=O)N[C@@H](CCCCN)C(=O)N[C@@H](Cc1ccc(O)cc1)C(=O)N[C@@H](CC(C)C)C(=O)N[C@@H](CC(=O)O)C(=O)N[C@@H](CCC(=O)O)C(=O)N[C@@H](CCC(N)=O)C(=O)N[C@@H](C)C(=O)N[C@@H](C)C(=O)NC(C)(C)C(=O)N[C@@H](CCC(=O)O)C(=O)N[C@@H](Cc1ccccc1)C(=O)N[C@H](C(=O)N[C@@H](CCC(N)=O)C(=O)N[C@@H](Cc1c[nH]c2ccccc12)C(=O)N[C@@H](CC(C)C)C(=O)N[C@@H](CC(C)C)C(=O)N[C@@H](CC(=O)O)C(=O)NCC(=O)NCC(=O)N1CCC[C@H]1C(=O)N[C@@H](CO)C(=O)N[C@@H](CO)C(=O)NCC(=O)N[C@@H](C)C(=O)N1CCC[C@H]1C(=O)N1CCC[C@H]1C(=O)N1CCC[C@H]1C(=O)N[C@@H](CO)C(N)=O)C(C)C)C(=O)O [compound 26] (H-H[Aib]QGTFTSDK([γGlu-Palmitoyl])SKYLDEQAA[Aib]EFVQWLLDGGPSSGAPPPS-NH2) |  |  |  | 0.004 nM | 0.001 nM | 0.001 nM
